Experimental data from the NIST ThermoML archive (doi:10.1021/je049787p).

Experiment: xn = mol fraction of the nth substance listed
Details: 101.3 kPa, Liquid; for electrical conductivity: Alternating current cell with electrodes

C=CCn1cc[n+](C)c1.[Cl-] [1-allyl-3-methylimidazolium chloride] + CCO
Details | electrical conductivity, 293.15 K [S/m] | electrical conductivity, 303.15 K [S/m] | electrical conductivity, 313.15 K [S/m] | electrical conductivity, 323.15 K [S/m] | electrical conductivity, 333.15 K [S/m] | viscosity, 293.15 K [mPa·s] | viscosity, 303.15 K [mPa·s] | viscosity, 313.15 K [mPa·s] | viscosity, 323.15 K [mPa·s] | viscosity, 333.15 K [mPa·s]
x2 = 0 | 0.382 | 0.44 | 0.501 | 0.562 | 0.624 | 66 | 44.7 | 25.3 | 20.6 | 16.2
x2 = 0.1 | 0.485 | 0.543 | 0.604 | 0.66 | 0.722 | 54.6 | 44.1 | 24.6 | 20 | 16
x2 = 0.2 | 0.627 | 0.682 | 0.74 | 0.801 | 0.859 | 45.7 | 42.2 | 24.1 | 19.5 | 15.4
x2 = 0.3 | 0.703 | 0.759 | 0.818 | 0.876 | 0.935 | 39.1 | 30.9 | 22.6 | 18.7 | 15.1
x2 = 0.35 | 0.8 | 0.855 | 0.91 | 0.969 | 1.02 | 30.5 | 25.1 | 19.4 | 16 | 14.4
x2 = 0.45 | 0.884 | 0.943 | 0.999 | 1.06 | 1.11 | 26.4 | 22.1 | 20.1 | 16.7 | 13.1
x2 = 0.5 | 0.952 | 1.01 | 1.06 | 1.11 | 1.17 | 23.2 | 18.1 | 15.3 | 13.6 | 11.2
x2 = 0.55 | 1.03 | 1.09 | 1.14 | 1.2 | 1.25 | 20.4 | 16.3 | 14 | 12.5 | 10.1

C=CCn1cc[n+](C)c1.[Cl-] [1-allyl-3-methylimidazolium chloride] + O
Details | electrical conductivity, 293.15 K [S/m] | electrical conductivity, 303.15 K [S/m] | electrical conductivity, 313.15 K [S/m] | electrical conductivity, 323.15 K [S/m] | electrical conductivity, 333.15 K [S/m] | viscosity, 293.15 K [mPa·s] | viscosity, 303.15 K [mPa·s] | viscosity, 313.15 K [mPa·s] | viscosity, 323.15 K [mPa·s] | viscosity, 333.15 K [mPa·s]
x2 = 0 | 0.382 | 0.44 | 0.501 | 0.562 | 0.624 | 66 | 44.7 | 25.3 | 20.6 | 16.2
x2 = 0.3 | 0.817 | 0.874 | 0.93 | 0.985 | 1.04 | 51.3 | 40.7 | 24.1 | 19.6 | 15
x2 = 0.45 | 1.11 | 1.17 | 1.23 | 1.28 | 1.33 | 42.7 | 31.4 | 22.9 | 18.2 | 15.1
x2 = 0.59 | 1.36 | 1.42 | 1.47 | 1.53 | 1.58 | 34.4 | 27.5 | 22.7 | 18.3 | 14.9
x2 = 0.65 | 1.55 | 1.61 | 1.66 | 1.72 | 1.77 | 29.1 | 24.2 | 20.9 | 17.6 | 14.3
x2 = 0.7 | 1.73 | 1.78 | 1.84 | 1.89 | 1.94 | 26.1 | 22 | 19.5 | 16.4 | 13
x2 = 0.75 | 1.84 | 1.89 | 1.95 | 2 | 2.05 | 22.6 | 18.7 | 15.4 | 12.2 | 10.1
x2 = 0.8 | 1.93 | 1.99 | 2.04 | 2.09 | 2.14 | 19.3 | 15.6 | 12.7 | 11.1 | 9.2
